Reference: paper PMC4742250 (Biochimica et biophysica acta, 2008)
Where a SMILES comes first, the peptide text is derived from it. Bridges are numbered along the chain shown (N, C = ends).

Key:
human Src SH3 domain = assay: phage ELISA, binding to human Src SH3 domain; conditions: immobilized on polystyrene plates, O.D. 405 nm, triplicate wells
Src SH3 = conditions: read-out: KD, Src SH3 and its peptide ligand; ref [23]; cited from earlier work
E. coli Trx = E. coli Trx (Escherichia coli, UniProt P0AA25); assay: dilution binding assay of biotinylated TP-2 to immobilized Trx
E. coli Trx, sequence (P0AA25 whole entry): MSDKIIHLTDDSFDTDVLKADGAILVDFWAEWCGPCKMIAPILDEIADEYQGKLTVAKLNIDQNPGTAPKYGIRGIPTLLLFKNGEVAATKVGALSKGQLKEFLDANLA

Trx-gp5Δ22 interaction = Trx-gp5Δ22 interaction (Escherichia coli, UniProt P0AA25); assay: biochemical; design: species or system E. coli (Trx); bacteriophage T7 (gp5Δ22)
Trx-gp5Δ22 interaction, sequence (P0AA25 2-109, stated change not applied): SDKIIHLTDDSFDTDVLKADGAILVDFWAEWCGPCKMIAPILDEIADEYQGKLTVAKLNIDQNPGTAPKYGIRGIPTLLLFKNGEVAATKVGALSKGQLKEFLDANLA

Compound	binding to human Src SH3 domain (human Src SH3 domain)	Kd (Src SH3) [µM]	Kd (E. coli Trx) [nM]	reduction of peptide binding in the presence of DTT (E. coli Trx; 10 mM DTT, data not shown) [%]	IC50 (Trx-gp5Δ22 interaction) [µM]
H-SSRPLPPLPGS-NH2 [Src SH3 peptide ligand]	binds to Src SH3 domain	~5			
CC[C@H](C)[C@H](NC(=O)[C@H](CC(C)C)NC(=O)[C@H](CCCNC(=N)N)NC(=O)[C@H](CC(=O)O)NC(=O)[C@@H]1CCCN1C(=O)[C@@H](NC(=O)[C@@H](NC(=O)[C@@H]1CSSC[C@H](NC(=O)[C@H](CC(N)=O)NC(=O)[C@@H](NC(=O)[C@H](CC(N)=O)NC(=O)[C@H](CCCNC(=N)N)NC(=O)[C@@H](N)CO)C(C)C)C(=O)N[C@@H](CC(N)=O)C(=O)N[C@@H](C)C(=O)N[C@@H](CO)C(=O)N[C@@H](C(C)C)C(=O)N1)[C@@H](C)O)[C@@H](C)CC)C(=O)N[C@H](C(=O)N[C@@H](CC(=O)O)C(=O)N[C@@H](CC(N)=O)C(=O)N1CCC[C@H]1C(=O)NCC(=O)N[C@@H](CO)C(=O)NCC(=O)N[C@@H](CO)C(N)=O)[C@@H](C)O [TP-2] (H-SRNVNCNASVCTIPDRLITDNPGSGS-NH2; disulfide 6-11)			2000	> 50	~10
